System: PMN killing of a pathogenic strain of Escherichia coli
Assay: Bacterial killing assay (total, phagocytic, NET-mediated)
Format: cell-based, human
Details: LPS-stimulated PMNs, E. coli
Protocol: FIG. 6A is a graph depicting results, after preincubation, of neutrophils that were stimulated with LPS (100 ng/mL) to trigger NET formation and incubated with a pathogenic isolate of E. coli. Total, phagocytic, and NET-mediated bacterial killing were measured (see Yost C C, et al., Blood. 2009; 113 (25):6419-27). One way ANOVA with Bonferonni's post hoc testing; *P<0.05, **P<0.01.
NET-mediated and phagocytic bacterial killing by primary human PMNs was determined as previously described (see Yost C C, et al., Blood. 2009; 113 (25):6419-27).
Without being bound by any specific theory, it was hypothesized that placentally expressed HTRA1, a serine protease, regulates the formation of NET-inhibitory peptides through cleavage of AAT. To test this hypothesis, term and preterm placenta were assessed for HTRA1 expression via western blotting. HTRA1 and AAT plasma expression from term and preterm infants and adults were determined by ELISA. Bioactive (0.5 μg) or placental eluted HTRA1 was incubated with AAT (8 μM) for 18 hours at 37° C. Carboxy-terminus fragments of AAT were detected using western blotting and mass spectrometry. The reaction products were incubated for 1 hour with PMNs isolated from healthy adults prior to LPS stimulation (100 ng/mL) and assessed for NET formation using live cell imaging. Reactive oxygen species were assessed using flow cytometry, chemotaxis using a modified Boyden chamber assay, and bacterial killing using E. coli.

“M_IPPEVKFNKPFVFLMIDQNTKVPLFMGK [CRISPP, consensus peptide based on factors present in the blood of patients with cancer]” was tested, and the “extracellular NET-mediated bacterial killing” value was “depressed”, the phagocytic intracellular killing was “not altered” and the total bacterial killing was “depressed”.
